# Experimental data: article PMC5456363 (PLoS ONE, 2017)
# Several values for one entry are separate records, joined by “and”; a condition that tells them apart may be missing. Identical values can stand only once. Non-standard residues stand in square brackets, D forms with d. Residues, ends and D or L forms follow the SMILES beside them. *: point of attachment. Orn(α-tetramethylguanidino) = CN(C)C(=N[C@@H](CCCN)C(=O)*)N(C)C
# Assays:
# [1] = Stability and metabolites across fresh blood, serum and plasma (all six matrices); conditions: fresh blood, serum, and plasma
# Description: Aqueous peptide solutions (3 g/L) were filled in a sterile syringe (1 mL, Dispomed Witt oHG, Gelnhausen, Deutschland) through the front end, the stainless-steel needle was attached, and blood (200 to 300 μL) was collected via cardiac puncture to obtain a peptide concentration of approximately 31,5 μmol/L. The syringe was carefully disconnected from the needle and sealed while keeping the needle in the heart. A second empty syringe was attached to the needle and 0.5 to 0.8 mL blood were collected. In parallel, the sealed syringe was gently shaken for one minute to mix the peptide solution with blood and further incubated on a Stuart Rotator SB3 (Barloworld, Scientific LTD, Stone, Staffordshire, U.K.) placed in an incubator at 37°C. […] The plasma sample designated as “blood” (B) was precipitated with trichloroacetic acid (TCA), as described below. Blood collected in the second syringe was transferred to a polypropylene tube (Eppendorf AG, Hamburg, Germany) and a BD Microtainer® serum separator tube (SST; Becton, Dickinson and Company). Polypropylene tubes were centrifuged immediately (12,000 x g, 2 to 4 min) to obtain “direct serum” (DS) as supernatant, whereas the serum separator tubes were incubated (room temperature, 1 h), centrifuged (12,000 x g, 2 min), and collected as “activated serum” (AS). Pooled mouse serum was purchased from PAA Laboratories GmbH (Pasching, Austria) and pooled CD-1 mouse plasma containing K2EDTA or lithium heparin were obtained from Innovative Research (Novi, MI, USA).
# Peptides were mixed with serum or plasma to a final concentration of 31.5 μmol/L and incubated (37°C, 750 rpm; Thermomixer, Eppendorf AG, Hamburg, Germany). Aliquots (20 or 40 μL) taken after 0 and 60 min (0, 10 and 30 min for Api88) were mixed with TCA to obtain a final concentration of 3% (w/v) and incubated on ice (10 min). After centrifugation (12,000 x g, 5 min), the supernatant was neutralized with sodium hydroxide (1 mol/L) and stored at −20°C. Samples were analyzed by RP-HPLC on a Jupiter C18-column (internal diameter: 2 mm, length: 150 mm, particle size: 5 μm, pore size: 30 nm) using a linear aqueous acetonitrile gradient containing TFA (0.1%, v/v) as ion pair reagent. Peptides were detected by recording the absorbance at 214 nm and quantified by their peak areas relative to the initial peak areas (0 min). All stability tests were performed at least in triplicates.
# Metabolites were identified on an Agilent 1100 LC system (Agilent Technologies, Santa Clara, CA, USA) coupled on-line via a UV-detector (absorbance recorded at 214 nm) to the electrospray ionization source on an ion trap mass spectrometer (ESI-IT-MS, Esquire HCT, Bruker Daltonics GmbH, Bremen, Germany). Samples were separated on an Aqua C18-column (inner diameter: 2 mm, length: 150 mm, particle size: 3 μm, pore size: 12.5 nm, Phenomenex; column temperature: 60°C) at a flow rate of 0.2 mL/min using a linear gradient of aqueous acetonitrile in the presence of formic acid (FA; 0.1%, v/v) as ion pair reagent. […] The ESI-IT-MS was operated in positive ion mode. Ionization was carried out at 365°C (source temperature) using nitrogen as curtain gas (40 psi) and dry gas (9 L/min). Mass spectra were acquired for an m/z range from 400 to 1300 at a scan rate of 8100 m/z-units per second in standard enhanced mode.
# [2] = Peptide stability in heparin plasma (HP); format: in vitro ADME, CD-1 mouse
# Description: (§1) All stability tests were performed at least in triplicates.
# [3] = Peptide stability in direct serum (DS); format: in vitro ADME, CD-1 mice
# Description: as §1
# [4] = Peptide stability in activated serum (AS); format: in vitro ADME, CD-1 mice
# Description: as §1
# [5] = Peptide stability in commercial serum (CS); format: in vitro ADME, mouse
# Description: as §1
# [6] = Peptide stability in fresh blood taken by cardiac puncture into a syringe containing the peptide (blood, B); format: in vitro ADME, CD-1 mice
# Description: as §1
# [7] = set-up: method as in PMID 27067364; conditions: 25% aqueous commercial serum; cited from earlier work
# [8] = Peptide stability in EDTA plasma (EP); format: in vitro ADME, CD-1 mouse
# Description: as §1
# [9] = target: T1, human α-thrombin (Homo sapiens, UniProt P00734); assay: α-Thrombin stability assay; format: in vitro ADME
# T1 construct: with human α-Thrombin for 0, 1, and 24 hours
# Description: Supplementary file pone.0178943.s003.tif: S3 Fig Stability of Api88, Api137, and LVPR-Onc112 against human α-thrombin. Chromatograms recorded after incubation of Api88 (a), Api137 (b), or LVPR-Onc112 (c) with human α-Thrombin for 0, 1, and 24 hours (UV absorbance). […] (TIF) Click here for additional data file.
# S1 Text. Method α-Thrombin stability assay.
# [10] = in vitro, mouse serum; cited from earlier work
# [11] = Pooled mouse serum (PAA Laboratories), commercial serum (CS); conditions: 37°C, up to 60 min
# [12] = “activated serum” (AS): serum separator tubes incubated (room temperature, 1 h), centrifuged; conditions: CD-1 mice, 37°C, up to 60 min
# [13] = pooled CD-1 mouse plasma containing K2EDTA (EDTA plasma, EP); conditions: 37°C, up to 60 min
# [14] = “direct serum” (DS): blood in polypropylene tubes centrifuged immediately; conditions: CD-1 mice, 37°C, up to 60 min
# [15] = pooled CD-1 mouse plasma containing lithium heparin (heparin plasma, HP); conditions: 37°C, up to 60 min
# [16] = 25% aqueous commercial serum; conditions: cited from earlier work
# [17] = blood collected via cardiac puncture into a syringe containing the peptide solution (“blood”, B); conditions: CD-1 mice, 37°C, up to 60 min
# [18] = test system: human α-thrombin; assay: human α-thrombin; conditions: up to 24 hours
compound,measurement,setting,value
"CC[C@H](C)[C@H](NC(=O)[C@@H](CCCNC(=N)N)NC(=O)[C@H](CCCNC(=N)N)NC(=O)[C@@H]1CCCN1C(=O)[C@@H]1CCCN1C(=O)[C@H](CCCNC(=N)N)NC(=O)[C@@H]1CCCN1C(=O)[C@H](CCCNC(=N)N)NC(=O)[C@@H]1CCCN1C(=O)[C@H](CC(C)C)NC(=O)[C@H](Cc1ccc(O)cc1)NC(=O)[C@@H]1CCCN1C(=O)[C@@H]1CCCN1C(=O)[C@H](CCCCN)NC(=O)[C@H](CC(=O)O)NC(=O)[C@@H](NC(=O)[C@H](CCCNC(=N)N)NC(=O)[C@H](Cc1ccc(O)cc1)NC(=O)[C@H](C)NC(=O)[C@H](C)N)C(C)C)C(=O)N[C@@H](Cc1ccc(O)cc1)C(=O)N[C@@H](CC(N)=O)C(=O)N[C@H](CCCNC(=N)N)C(N)=O [AAYR-Onc112, AAYRVDKPPYLPRPRPPRrIYNr-NH2] (H-AAYRVDKPPYLPRPRPPR[dR]IYN[dR]-NH2)",Overall stability,[1],Low
same,Sequential stability,[1],Blood = Plasma = Serum
same,Onc112 released relative to initial prodrug,[2]; 1 h,35 ± 4%
same,Onc112 released relative to initial prodrug,[3]; 1 h,< 3%
same,Onc112 released relative to initial prodrug,[4]; 1 h,< 3%
same,Onc112 released relative to initial prodrug,"[5]; commercial serum, 1 h",13 ± 2%
same,prodrug expected to be present in full serum,[5]; extrapolated from 25% serum data assuming three-fold faster degradation in full serum,5%
same,Onc112 released relative to initial prodrug,"[6]; blood, 1 h",< 3%
same,Onc112 released from linker peptide,[7],85%
same,Onc112 released relative to initial prodrug,[8]; 1 h,40 ± 4%
"CC[C@H](C)[C@H](NC(=O)[C@H](Cc1ccc(O)cc1)NC(=O)[C@@H](NC(=O)[C@@H]1CCCN1C(=O)[C@H](CCCNC(=N)N)NC(=O)[C@H](CC(N)=O)NC(=O)[C@H](CC(N)=O)NC(=O)[C@H](CCCN)N=C(N(C)C)N(C)C)C(C)C)C(=O)N1CCC[C@H]1C(=O)N[C@@H](CCCNC(=N)N)C(=O)N1CCC[C@H]1C(=O)N[C@@H](CCCNC(=N)N)C(=O)N1CCC[C@H]1C(=O)N1CCC[C@H]1C(=O)N[C@@H](Cc1c[nH]cn1)C(=O)N1CCC[C@H]1C(=O)N[C@@H](CCCNC(=N)N)C(=O)N[C@@H](CC(C)C)C(N)=O [Api88, gu-ONNRPVYIPRPRPPHPRL-NH2] ({Orn(α-tetramethylguanidino)}-NNRPVYIPRPRPPHPRL-NH2)",Overall stability,[1],Low
same,Sequential stability,[1],Blood > Plasma > Serum
same,"remaining at 10 min, 31.5 μmol/L","[2]; CD-1, mouse, pooled plasma containing lithium heparin, 37°C, 10 min, read-out: intact peptide remaining relative to time zero",77 ± 5%
same,"remaining at 0.5 h, 31.5 μmol/L","[2]; CD-1, mouse, pooled plasma containing lithium heparin, 37°C, 30 min, read-out: intact peptide remaining relative to time zero",36 ± 1%
same,intact peptide remaining relative to time zero,"[3]; 37°C, 30 min",fully degraded
same,"remaining at 10 min, 31.5 μmol/L","[3]; CD-1, mouse, direct serum (supernatant of blood centrifuged immediately), 37°C, 10 min, read-out: intact peptide remaining relative to time zero",11 ± 6%
same,intact peptide remaining relative to time zero,"[4]; 37°C, 30 min",fully degraded
same,"remaining at 10 min, 31.5 μmol/L","[4]; CD-1, mouse, 37°C, 10 min, read-out: intact peptide remaining relative to time zero",22 ± 5%
same,intact peptide remaining relative to time zero,"[5]; commercial serum, 37°C, 30 min",fully degraded
same,"remaining at 10 min, 31.5 μmol/L","[5]; mouse, commercial pooled serum, commercial serum, 37°C, 10 min, read-out: intact peptide remaining relative to time zero",10 ± 2%
same,half-life at 31.5 μmol/L,"[6]; CD-1, mouse, fresh whole blood taken by cardiac puncture, indicated by the recovery after 10 min, read-out: half-life time in fresh mouse blood (converted)",~1 h
same,remaining at 10 min,"[6]; CD-1, mouse, fresh whole blood, blood, 37°C, 10 min, read-out: intact peptide remaining relative to time zero",88 ± 14%
same,remaining at 0.5 h,"[6]; CD-1, mouse, fresh whole blood, blood, 37°C, 30 min, read-out: intact peptide remaining relative to time zero",30 ± 14%
same,half-life time in fresh mouse blood relative to that reported for serum,[6]; blood versus reported serum half-life,30 fold
same,intact peptide remaining relative to time zero,"[6]; blood, 37°C, 10 min",88 ± 15%
same,proteolytic cleavage by human α-thrombin,[9]; after one hour,completely degraded
same,"remaining at 10 min, 31.5 μmol/L","[8]; CD-1, mouse, pooled plasma containing K2EDTA, 37°C, 10 min, read-out: intact peptide remaining relative to time zero",48 ± 4%
same,"remaining at 0.5 h, 31.5 μmol/L","[8]; CD-1, mouse, pooled plasma containing K2EDTA, 37°C, 30 min, read-out: intact peptide remaining relative to time zero",5 ± 3%
"CC[C@H](C)[C@H](NC(=O)[C@H](Cc1ccc(O)cc1)NC(=O)[C@@H](NC(=O)[C@@H]1CCCN1C(=O)[C@H](CCCNC(=N)N)NC(=O)[C@H](CC(N)=O)NC(=O)[C@H](CC(N)=O)NC(=O)[C@H](CCCN)N=C(N(C)C)N(C)C)C(C)C)C(=O)N1CCC[C@H]1C(=O)N[C@@H](CCCNC(=N)N)C(=O)N1CCC[C@H]1C(=O)N[C@@H](CCCNC(=N)N)C(=O)N1CCC[C@H]1C(=O)N1CCC[C@H]1C(=O)N[C@@H](Cc1c[nH]cn1)C(=O)N1CCC[C@H]1C(=O)N[C@@H](CCCNC(=N)N)C(=O)N[C@@H](CC(C)C)C(=O)O [Api137, gu-ONNRPVYIPRPRPPHPRL-OH] ({Orn(α-tetramethylguanidino)}-NNRPVYIPRPRPPHPRL-OH)",Overall stability,[1],High
same,Sequential stability,[1],Blood = Plasma = Serum
same,"remaining at 1 h, 31.5 μmol/L","[2]; CD-1, mouse, pooled plasma containing lithium heparin, 37°C, 1 h, 31.5 μmol/L, read-out: intact peptide remaining relative to time zero",83 ± 2%
same,intact peptide remaining relative to time zero,"[3]; 37°C, 1 h, 31.5 μmol/L",≥ 94%
same,half-life time in mouse serum,[10],6 h
same,intact peptide remaining relative to time zero,"[4]; 37°C, 1 h, 31.5 μmol/L",≥ 94%
same,"remaining at 1 h, 31.5 μmol/L","[5]; commercial pooled serum, commercial mouse serum, 37°C, 1 h, 31.5 μmol/L, read-out: intact peptide remaining relative to time zero",87 ± 9%
same,proteolytic cleavage by human α-thrombin,[9]; after 24 h,remained mostly intact
same,intact peptide remaining relative to time zero,"[8]; 37°C, 1 h, 31.5 μmol/L",≥ 94%
AAYRVDKPPYLPRPRPPRrIYNr-NH2 (H-AAYRVDKPPYLPRPRPPR[dR]IYN[dR]-NH2; SMILES CC[C@H](C)[C@H](NC(=O)[C@@H](CCCNC(=N)N)NC(=O)[C@H](CCCNC(=N)N)NC(=O)[C@@H]1CCCN1C(=O)[C@@H]1CCCN1C(=O)[C@H](CCCNC(=N)N)NC(=O)[C@@H]1CCCN1C(=O)[C@H](CCCNC(=N)N)NC(=O)[C@@H]1CCCN1C(=O)[C@H](CC(C)C)NC(=O)[C@H](Cc1ccc(O)cc1)NC(=O)[C@@H]1CCCN1C(=O)[C@@H]1CCCN1C(=O)[C@H](CCCCN)NC(=O)[C@H](CC(=O)O)NC(=O)[C@@H](NC(=O)[C@H](CCCNC(=N)N)NC(=O)[C@H](Cc1ccc(O)cc1)NC(=O)[C@H](C)NC(=O)[C@H](C)N)C(C)C)C(=O)N[C@@H](Cc1ccc(O)cc1)C(=O)N[C@@H](CC(N)=O)C(=O)N[C@H](CCCNC(=N)N)C(N)=O),fragment found,[11],5–23 [Onc112]; VDKPPYLPRPRPPRrIYNr-NH2
same,fragment found,[12],5–23 [Onc112]; VDKPPYLPRPRPPRrIYNr-NH2
same,fragment found,[13],5–23 [Onc112]; VDKPPYLPRPRPPRrIYNr-NH2
same,fragment found,[14],5–23 [Onc112]; VDKPPYLPRPRPPRrIYNr-NH2
same,fragment found,[15],5–23 [Onc112]; VDKPPYLPRPRPPRrIYNr-NH2
same,fragment found,[16],Onc112
same,fragment found,[17],5–23 [Onc112]; VDKPPYLPRPRPPRrIYNr-NH2
LVPRVDKPPYLPRPRPPRrIYNr-NH2 (H-LVPRVDKPPYLPRPRPPR[dR]IYN[dR]-NH2; SMILES CC[C@H](C)[C@H](NC(=O)[C@@H](CCCNC(=N)N)NC(=O)[C@H](CCCNC(=N)N)NC(=O)[C@@H]1CCCN1C(=O)[C@@H]1CCCN1C(=O)[C@H](CCCNC(=N)N)NC(=O)[C@@H]1CCCN1C(=O)[C@H](CCCNC(=N)N)NC(=O)[C@@H]1CCCN1C(=O)[C@H](CC(C)C)NC(=O)[C@H](Cc1ccc(O)cc1)NC(=O)[C@@H]1CCCN1C(=O)[C@@H]1CCCN1C(=O)[C@H](CCCCN)NC(=O)[C@H](CC(=O)O)NC(=O)[C@@H](NC(=O)[C@H](CCCNC(=N)N)NC(=O)[C@@H]1CCCN1C(=O)[C@@H](NC(=O)[C@@H](N)CC(C)C)C(C)C)C(C)C)C(=O)N[C@@H](Cc1ccc(O)cc1)C(=O)N[C@@H](CC(N)=O)C(=O)N[C@H](CCCNC(=N)N)C(N)=O),fragment found,[11],"LVPR-Onc112(4–23); RVDKPPYLPRPRPPRrIYNr-NH2, minor and 5–23 [Onc112]; VDKPPYLPRPRPPRrIYNr-NH2"
same,fragment found,[12],"LVPR-Onc112(4–23); RVDKPPYLPRPRPPRrIYNr-NH2, minor and 5–23 [Onc112]; VDKPPYLPRPRPPRrIYNr-NH2"
same,fragment found,[13],"LVPR-Onc112(4–23); RVDKPPYLPRPRPPRrIYNr-NH2, minor and 5–23 [Onc112]; VDKPPYLPRPRPPRrIYNr-NH2"
same,fragment found,[14],"LVPR-Onc112(4–23); RVDKPPYLPRPRPPRrIYNr-NH2, minor and 5–23 [Onc112]; VDKPPYLPRPRPPRrIYNr-NH2"
same,cleaved bond,[18],C-terminal to Arg4 in LVPR-Onc112
same,fragment found,[15],"LVPR-Onc112(4–23); RVDKPPYLPRPRPPRrIYNr-NH2, minor and 5–23 [Onc112]; VDKPPYLPRPRPPRrIYNr-NH2"
same,fragment found,[16],Onc112
same,fragment found,[17],LVPR-Onc112(4–23); RVDKPPYLPRPRPPRrIYNr-NH2 and 5–23 [Onc112]; VDKPPYLPRPRPPRrIYNr-NH2
